In patent publication US20240174618A1, “SUBSTITUTED (2-HETEROARYLOXYPHENYL)SULFONATES, SALTS THEREOF AND THEIR USE AS HERBICIDAL AGENTS” (Bayer Aktiengesellschaft, priority 2021, published 2024):

Key:
Type in all cases: in vivo
[1] = system: Setaria viridis (SETVI); assay: A. Herbicidal pre-emergence efficacy, SETVI
Summary of the method: (§1)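 Applied before emergence onto covering soil at rates of 1280 g/ha or less, using 600 L/ha spray water with 0.5% additive. Scoring: visual % efficacy after ~3 weeks, greenhouse.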

[2] = system: Poa annua (POAAN); assay: B. Herbicidal post-emergence efficacy, POAAN
Summary of the method: (§2)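 Readout: visual % kill vs untreated, ~3 wk post-spray. Plants in sandy loam pots, treated at one-leaf stage; spray = WP/EC in water + 0.5% additive, 600 L/ha, dose ≤1280 g/ha.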

[3] = system: Amaranthus retroflexus (AMARE); assay: A. Herbicidal pre-emergence efficacy, AMARE
Summary of the method: as §1

[4] = system: Poa annua (POAAN); assay: A. Herbicidal pre-emergence efficacy, POAAN
Summary of the method: as §1

[5] = system: Amaranthus retroflexus (AMARE); assay: B. Herbicidal post-emergence efficacy, AMARE
Summary of the method: as §2

[6] = system: Stellaria media (STEME); assay: B. Herbicidal post-emergence efficacy, STEME
Summary of the method: as §2

[7] = system: Veronica persica (VERPE); assay: B. Herbicidal post-emergence efficacy, VERPE
Summary of the method: as §2

[8] = system: Stellaria media (STEME); assay: A. Herbicidal pre-emergence efficacy, STEME
Summary of the method: as §1

[9] = system: Kochia scoparia (KCHSC); assay: B. Herbicidal post-emergence efficacy, KCHSC; settings: 1280 g/ha
Summary of the method: as §2

[10] = system: Lolium rigidum (LOLRI); assay: B. Herbicidal post-emergence efficacy, LOLRI; settings: 1280 g/ha
Protocol: Seeds of mono- and dicotyledonous weed plants were placed in plastic pots in sandy loam soil (doubly sown with in each case one species of mono- or dicotyledonous weed plants per pot), covered with soil and cultivated in a greenhouse under controlled growth conditions. 2 to 3 weeks after sowing, the test plants were treated at the one-leaf stage. The compounds of the invention, formulated in the form of wettable powders (WP) or as emulsion concentrates (EC), were applied onto the green parts of the plants as aqueous suspension or emulsion with addition of 0.5% additive at a water application rate of 600 liters per hectare (converted). After the test plants had been kept in the greenhouse under optimum growth conditions for about 3 weeks, the activity of the preparations was rated visually in comparison to untreated controls.
For example, • 100% efficacy=plants have died, • 0% efficacy=like untreated control plants
Tables B1a to B12c below show the effects of selected inventive compounds of the general formula (I) according to table 1 on various harmful plants at an application rate corresponding to 1280 g/ha or less, which were obtained by the experimental procedure mentioned above.

[11] = system: Abutilon theophrasti (ABUTH); assay: B. Herbicidal post-emergence efficacy, ABUTH; settings: rated visually after about 3 weeks
Summary of the method: as §2

[12] = system: Digitaria sanguinalis (DIGSA); assay: A. Herbicidal pre-emergence efficacy, DIGSA; settings: scored visually after about 3 weeks vs untreated controls
Summary of the method: as §1

[13] = system: Echinochloa crus-galli (ECHCG); assay: B. Herbicidal post-emergence efficacy, ECHCG; settings: rated visually after about 3 weeks
Summary of the method: as §2

[14] = system: Viola tricolor (VIOTR); assay: C. Herbicidal pre-emergence efficacy, VIOTR
Description: (§3) Seeds of monocotyledonous and dicotyledonous weed plants and crop plants were placed in plastic or organic planting pots and covered with soil. The compounds of the invention, formulated in the form of wettable powders (WP) or as emulsion concentrates (EC), were then applied to the surface of the covering soil as aqueous suspension or emulsion with addition of 0.5% additive at a water application rate equivalent to 600 l/ha (converted). After the treatment, the pots were placed in a greenhouse and kept under good growth conditions for the test plants. After about 3 weeks, the efficacy of the preparations was scored visually in comparison with untreated controls as percentages. For example, • 100% efficacy=plants have died, • 0% efficacy=like untreated control plants.
(§4) Tables C1a to C14b below show the effects of selected compounds of the general formula (I) according to table 1 on various harmful plants at an application rate corresponding to 320 g/ha or less, which were obtained by the experimental procedure mentioned above.

[15] = system: Alopecurus myosuroides (ALOMY); assay: E. Herbicidal post-emergence efficacy, ALOMY; settings: application rate 320 g/ha
Protocol: (§5) Seeds of monocotyledonous and dicotyledonous weeds and crop plants were placed in sandy loam in plastic or organic planting pots, covered with soil and cultivated in a greenhouse under controlled growth conditions. 2 to 3 weeks after sowing, the test plants were treated at the one-leaf stage. The compounds of the invention, formulated in the form of wettable powders (WP) or as emulsion concentrates (EC), were then sprayed onto the green parts of the plants as aqueous suspension or emulsion with addition of 0.5% additive at a water application rate of 600 l/ha (converted). After the test plants had been kept in the greenhouse under optimum growth conditions for about 3 weeks, the activity of the preparations was rated visually in comparison to untreated controls.
(§6) For example, • 100% efficacy=plants have died, • 0% action=like untreated control plants.
(§7) Tables E1a to E12b below show the effects of selected compounds of the general formula (I) according to table 1 on various harmful plants at an application rate corresponding to 320 g/ha or less, which were obtained by the experimental procedure mentioned above.

[16] = system: Lolium rigidum (LOLRI); assay: E. Herbicidal post-emergence efficacy, LOLRI; settings: application rate 320 g/ha
Protocol: as §5, §6, §7

[17] = system: Amaranthus retroflexus (AMARE); assay: C. Herbicidal pre-emergence efficacy, AMARE; settings: scored after about 3 weeks
Description: as §3, §4

[18] = system: Echinochloa crus-galli (ECHCG); assay: C. Herbicidal pre-emergence efficacy, ECHCG; settings: scored after about 3 weeks
Description: as §3, §4

[19] = system: Lolium rigidum (LOLRI); assay: C. Herbicidal pre-emergence efficacy, LOLRI; settings: 320 g/ha, scored after about 3 weeks
Description: as §3, §4

[20] = system: Polygonum convolvulus (POLCO); assay: E. Herbicidal post-emergence efficacy, POLCO; settings: application rate 320 g/ha
Protocol: as §5, §6, §7

[21] = system: Viola tricolor (VIOTR); assay: E. Herbicidal post-emergence efficacy, VIOTR
Protocol: as §5, §6, §7

[22] = system: Abutilon theophrasti (ABUTH); assay: E. Herbicidal post-emergence efficacy, ABUTH
Protocol: as §5, §6, §7

[23] = system: Avena fatua (AVEFA); assay: C. Herbicidal pre-emergence efficacy, AVEFA; settings: 320 g/ha, scored after about 3 weeks
Description: as §3, §4

[24] = system: Abutilon theophrasti (ABUTH); assay: C. Herbicidal pre-emergence efficacy, ABUTH; settings: scored after about 3 weeks
Description: as §3, §4

[25] = system: Setaria viridis (SETVI); assay: C. Herbicidal pre-emergence efficacy, SETVI; settings: scored after about 3 weeks
Description: as §3, §4

[26] = system: Setaria viridis (SETVI); assay: E. Herbicidal post-emergence efficacy, SETVI; settings: application rate 320 g/ha
Protocol: as §5, §6, §7

[27] = system: Alopecurus myosuroides (ALOMY); assay: C. Herbicidal pre-emergence efficacy, ALOMY; settings: 320 g/ha, scored after about 3 weeks
Description: as §3, §4

[28] = system: Veronica persica (VERPE); assay: E. Herbicidal post-emergence efficacy, VERPE
Protocol: as §5, §6, §7

[29] = system: Veronica persica (VERPE); assay: C. Herbicidal pre-emergence efficacy, VERPE; settings: scored after about 3 weeks
Description: as §3, §4

[30] = system: Amaranthus retroflexus (AMARE); assay: E. Herbicidal post-emergence efficacy, AMARE
Protocol: as §5, §6, §7

[31] = system: Polygonum convolvulus (POLCO); assay: C. Herbicidal pre-emergence efficacy, POLCO; settings: scored after about 3 weeks
Description: as §3, §4

[32] = system: Matricaria inodora (MATIN); assay: C. Herbicidal pre-emergence efficacy, MATIN; settings: 320 g/ha, scored after about 3 weeks
Description: as §3, §4

[33] = system: Triticum aestivum (TRZAS); assay: F. Post-emergence effect on useful plants, TRZAS; settings: useful plant, application rate 80 g/ha
Protocol: as §5, §6
(§8) Tables F1a to F4 below show the effects of selected compounds of the general formula (I) according to table 1 on various useful plants at an application rate corresponding to 320 g/ha or less, which were obtained by the experimental procedure mentioned above.

[34] = system: Echinochloa crus-galli (ECHCG); assay: E. Herbicidal post-emergence efficacy, ECHCG
Protocol: as §5, §6, §7

[35] = system: Oryza sativa (ORYSA); assay: D. Pre-emergence effect on useful plants, ORYSA; settings: useful plant, application rate 80 g/ha
Description: as §3
(§9) Tables D1a to D5b below show the effects of selected compounds of the general formula (I) according to table 1 on various useful plants at an application rate corresponding to 320 g/ha or less, which were obtained by the experimental procedure mentioned above.

[36] = system: Glycine max (GLXMA); assay: D. Pre-emergence effect on useful plants, GLXMA; settings: useful plant, application rate 80 g/ha
Description: as §3, §9

[37] = system: Zea mays (ZEAMX); assay: F. Post-emergence effect on useful plants, ZEAMX; settings: useful plant, application rate 80 g/ha
Protocol: as §5, §6, §8

SMILES: Cc1cccc(Oc2ncc(Cl)cn2)c1OS(=O)(=O)CC1CC1(Cl)Cl (centres unmarked) [Example I-76]
- Pre-emergence efficacy against SETVI ([1]; dosage 320 g/ha): 100%
- Pre-emergence efficacy against SETVI ([1]; dosage 1280 g/ha): 100%
- Post-emergence efficacy against POAAN ([2]; 320 g/ha): 90%
- Post-emergence efficacy against POAAN ([2]; 1280 g/ha): 100%
- Pre-emergence efficacy against AMARE in % ([3]; 320 g/ha): 90%
- Pre-emergence efficacy against AMARE in % ([3]; 1280 g/ha): 100%
- Pre-emergence efficacy against POAAN ([4]; dosage 320 g/ha): 90%
- Pre-emergence efficacy against POAAN ([4]; dosage 1280 g/ha): 90%
- Post-emergence efficacy against AMARE ([5]; 80 g/ha): 90%
- Post-emergence efficacy against AMARE ([5]; 320 g/ha): 100%
- Post-emergence efficacy against AMARE ([5]; 1280 g/ha): 100%
- Post-emergence efficacy against STEME ([6]; 80 g/ha): 90%
- Post-emergence efficacy against STEME ([6]; 320 g/ha): 100%
- Post-emergence efficacy against STEME ([6]; 1280 g/ha): 100%
- Post-emergence efficacy against VERPE ([7]; 80 g/ha): 90%
- Post-emergence efficacy against VERPE ([7]; 320 g/ha): 100%
- Post-emergence efficacy against VERPE ([7]; 1280 g/ha): 100%
- Pre-emergence efficacy against STEME ([8]; dosage 80 g/ha): 90%
- Pre-emergence efficacy against STEME ([8]; dosage 320 g/ha): 90%
- Pre-emergence efficacy against STEME ([8]; dosage 1280 g/ha): 100%
- Post-emergence efficacy against KCHSC [9]: 90%
- Post-emergence efficacy against LOLRI [10]: 90%
- Post-emergence efficacy against ABUTH in % ([11]; 80 g/ha): 90%
- Post-emergence efficacy against ABUTH in % ([11]; 320 g/ha): 90%
- Post-emergence efficacy against ABUTH in % ([11]; 1280 g/ha): 100%
- Pre-emergence efficacy against DIGSA ([12]; 320 g/ha): 90%
- Pre-emergence efficacy against DIGSA ([12]; 1280 g/ha): 90%
- Post-emergence efficacy against ECHCG in % ([13]; 320 g/ha): 90%
- Post-emergence efficacy against ECHCG in % ([13]; 1280 g/ha): 100%

SMILES: Cc1cccc(Oc2ncc(Cl)cn2)c1OS(=O)(=O)CCCCl [Example I-11]
- Pre-emergence efficacy against VIOTR in % ([14]; application rate 80 g/ha): 100%
- Pre-emergence efficacy against VIOTR in % ([14]; application rate 320 g/ha): 100%
- Post-emergence efficacy against ALOMY in % [15]: 90%
- Post-emergence efficacy against LOLRI in % [16]: 90%
- Pre-emergence efficacy against AMARE ([17]; 80 g/ha): 100%
- Pre-emergence efficacy against AMARE ([17]; 320 g/ha): 100%
- Pre-emergence efficacy against ECHCG ([18]; 80 g/ha): 90%
- Pre-emergence efficacy against ECHCG ([18]; 320 g/ha): 100%
- Pre-emergence efficacy against LOLRI [19]: 80%
- Post-emergence efficacy against POLCO in % [20]: 100%
- Post-emergence efficacy against VIOTR in % ([21]; application rate 80 g/ha): 90%
- Post-emergence efficacy against VIOTR in % ([21]; application rate 320 g/ha): 100%
- Post-emergence efficacy against ABUTH in % ([22]; application rate 80 g/ha): 80%
- Post-emergence efficacy against ABUTH in % ([22]; application rate 320 g/ha): 90%
- Pre-emergence efficacy against AVEFA [23]: 90%
- Pre-emergence efficacy against ABUTH ([24]; 80 g/ha): 90%
- Pre-emergence efficacy against ABUTH ([24]; 320 g/ha): 90%
- Pre-emergence efficacy against SETVI ([25]; 80 g/ha): 90%
- Pre-emergence efficacy against SETVI ([25]; 320 g/ha): 100%
- Post-emergence efficacy against SETVI in % [26]: 100%
- Pre-emergence efficacy against ALOMY [27]: 90%
- Post-emergence efficacy against VERPE in % ([28]; application rate 80 g/ha): 100%
- Post-emergence efficacy against VERPE in % ([28]; application rate 320 g/ha): 100%
- Pre-emergence efficacy against VERPE ([29]; 80 g/ha): 100%
- Pre-emergence efficacy against VERPE ([29]; 320 g/ha): 100%
- Post-emergence efficacy against AMARE in % ([30]; application rate 80 g/ha): 90%
- Post-emergence efficacy against AMARE in % ([30]; application rate 320 g/ha): 100%
- Pre-emergence efficacy against POLCO ([31]; 80 g/ha): 80%
- Pre-emergence efficacy against POLCO ([31]; 320 g/ha): 80%
- Pre-emergence efficacy against MATIN [32]: 80%
- Post-emergence efficacy against TRZAS in % [33]: 20%
- Post-emergence efficacy against ECHCG in % ([34]; application rate 80 g/ha): 90%
- Post-emergence efficacy against ECHCG in % ([34]; application rate 320 g/ha): 90%
- Pre-emergence efficacy against ORYSA in % [35]: 20%
- Pre-emergence efficacy against GLXMA in % [36]: 20%
- Post-emergence efficacy against ZEAMX in % [37]: 20%
